This passage reports TGI results from PubChem BioAssay (NCI).

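Results reflect a 48-hour exposure of cells in 96-well plates to compound at five concentrations. TGI is the concentration that stops growth completely.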

Assay in all cases: NCI tumour cell line growth inhibition, 48 h
In test [1] the test system is BT-549 breast.
In test [2] the test system is DU-145 prostate.
The subject of test [3] is HCT-116 colon.
Test [4] has as its system RPMI-8226 leukemia.
The test system of test [5] is SK-MEL-2 melanoma.
The test system of test [6] is SK-MEL-28 melanoma.
The test system of test [7] is SK-MEL-5 melanoma.
Test [8] relates to SN12C renal.
In test [9] the test system is SNB-75 CNS.
Test [10] has as its system U251 CNS.
Test [11] concerns UO-31 renal.

Take `CC(C)Oc1c(-c2ccc(F)cc2)c(O)c2c3c1oc(=O)n3C=CC2C` (configuration not stated): the TGI in [1] was determined as 28 µM; in test [2] it was 51.6 µM; in test [3], 25.5 µM; in test [4] it was 34.7 µM; in test [5], 53.3 µM; in [6], 30.9 µM. Besides, the TGI in test [7] amounted to 22.9 µM; in [8], 23.8 µM; in test [9], 31.3 µM; in [10], 30.3 µM; in test [11], 25.5 µM.
Regarding `O=C(N/N=C/c1ccccc1)c1cccc2nc3ccccc3nc12`, the TGI in [1], in test [2], in test [3], in test [4], in [5] and in test [6] was > 100 µM in each case. The TGI in test [7] was 18 µM; in [8], > 100 µM; in [9] it was > 100 µM; in test [10], > 100 µM; in [11] it was > 100 µM.
As for `Fc1ccc(C(OCCN2CC3CCC(C2)N3CCCc2ccccc2)c2ccc(F)cc2)cc1`, the TGI in test [1] is 24.8 µM; in test [2] it was 22.6 µM; in test [3], 11.3 µM; in test [4] it was 4.8 µM; in [5], 12 µM; in [6], 22.2 µM. For the same compound, the TGI in [7] was 3.4 µM; in test [8], 13.6 µM; in test [9] it was 17 µM; in test [10], 16.1 µM; in test [11] it was 19.4 µM.
For `CCOP(=O)(OCC)OC1c2[nH]cc(C(=O)OCc3ccccc3)c2-c2cc(C(=O)OC)[nH]c2C1OC` (configuration not stated), the TGI in [1] is 45.9 µM; in [2], 89.8 µM; in [3] it was > 85.4 µM; in test [4], > 100 µM; in test [5], > 76.5 µM; in test [6], > 100 µM. Moreover, the TGI is > 82.8 µM in [7]; > 100 µM in test [8]; 56.2 µM in test [9]; > 96.6 µM in test [10]; > 59.1 µM in test [11].
On to `CC1(C)[C@@H]2C[C@H]1c1cnc(-c3ccccn3)cc1C2CCCCC[C@@H]1c2cc(-c3ccccn3)ncc2[C@@H]2C[C@H]1C2(C)C` (some centres not stated), for which the TGI in test [1] is > 100 µM; in [2] it was > 100 µM; in [3] it was 31.3 µM; in test [4], 19.6 µM; in [5], > 88.6 µM; in test [6], > 100 µM. Besides, the TGI in test [7] is > 38.5 µM; in test [8] it was > 44.9 µM; in test [9], > 22.6 µM; in [10] it was > 100 µM; in [11] it was > 22.2 µM.
`COC(=O)CC1c2ccccc2N2C(=O)Cc3c([nH]c4ccccc34)C12` (configuration not stated): the TGI in test [1], in test [2], in test [3], in test [4], in test [5] and in test [6] was > 100 µM each time. For the same compound, the TGI in [7], in test [8], in [9], in [10] and in test [11] was > 100 µM throughout.
As for `COc1ccc(-c2c(C#N)c(S)n(NS(=O)(=O)c3ccccc3)c(=O)c2C#N)cc1`, the TGI in test [1] is 46 µM; in test [2] it was > 100 µM; in test [3], > 100 µM; in [4], 98.4 µM; in test [5] it was > 100 µM; in test [6] it was > 100 µM. The TGI in test [7], in test [8], in [9], in [10] and in [11] was > 100 µM in each case.
Regarding `C[C@@H]1CC[C@@]2(OC1)O[C@H]1C[C@H]3[C@@H]4CC[C@H]5C[C@@H](OC6OC(CO)C(OC7OC(CO)C(O)C(OC8OCC(O)C(O)C8O)C7OC7OC(CO)C(O)C(O)C7O)C(O)C6O)[C@H](O)C[C@]5(C)[C@H]4CC[C@]3(C)[C@H]1[C@@H]2C` (some centres not stated), the TGI in [1] was 7.47 µM; in test [2], 13.9 µM; in test [3] it was 17.8 µM; in test [4], 30.1 µM; in test [5], 24.8 µM; in test [6], 31 µM. Moreover, the TGI came to 45.8 µM in test [7], 27.9 µM in test [9], 12.4 µM in test [10] and 17.8 µM in test [11].
Regarding `O=c1oc2c(Cl)cc(Cl)cc2cc1C1=CSC2=NCCN12`, the TGI was 74.4 µM in test [1]; > 100 µM in [2]; > 100 µM in test [3]; > 100 µM in [4]; > 100 µM in test [5]; > 100 µM in [6]. Moreover, the TGI was 88.8 µM in test [7]; > 100 µM in test [8]; > 100 µM in test [9]; > 100 µM in test [10]; > 100 µM in [11].
Regarding `O=C(OCCNC(=O)N1CC1)OCCNC(=O)N1CC1`, the TGI in [1], in test [2], in test [3], in test [4], in test [5] and in test [6] was > 10 µM throughout. The TGI in test [7], in test [8], in test [9], in test [10] and in test [11] was > 10 µM each time.
As for `CCO/C=N/C1=C(C#N)SC2=N/C(=C\c3ccccc3)C(=O)N21`, the TGI in test [1], in test [2], in test [3], in test [4], in test [5] and in [6] was > 100 µM each time. Besides, the TGI in test [7], in test [8], in [9], in [10] and in [11] was > 100 µM in each case.
On to `CCOC(=O)c1cccc(NC(=O)CI)c1`, for which the TGI is 1.48 µM in test [1]; 3.34 µM in [2]; 0.946 µM in test [3]; 3.28 µM in test [4]; 2.4 µM in test [5]; 5.86 µM in [6]. Moreover, the TGI was found to be 1.22 µM in [7]; 0.731 µM in test [8]; 2.87 µM in test [9]; 1.35 µM in test [10]; 0.43 µM in test [11].
In the case of `Cc1n(Cc2ccccc2)nc2sc(N)n[n+]12`, the TGI in test [1], in [2], in [3], in test [4], in test [5] and in test [6] was > 100 µM throughout. In addition, the TGI in [7], in test [8], in test [9], in test [10] and in test [11] was > 100 µM each time.
Regarding `CCOC(=O)c1c(NC(=S)Nc2ccccc2)sc2c1CCOC2`, the TGI was 58 µM in test [1]; > 100 µM in test [2]; > 100 µM in test [3]; > 100 µM in [4]; > 100 µM in test [5]; > 100 µM in [6]. The TGI is > 100 µM in test [7]; > 100 µM in [8]; 62.1 µM in [9]; > 100 µM in test [10]; > 100 µM in test [11].
Take `C=C1C[C@H](O)[C@H](Br)C(C)(C)C12CCC(C)(Cl)C(Br)C2` (some centres not stated): the TGI was found to be 18.5 µM in test [1]; 15.8 µM in test [2]; 16.1 µM in [3]; 3.76 µM in test [4]; 6.55 µM in [5]; 19 µM in test [6]. Further, the TGI worked out at 12.2 µM in [7]; 14.8 µM in test [8]; 11.2 µM in [9]; 8.91 µM in test [10]; 17 µM in test [11].
On to `CN(C)c1ccc(C=C2C(=O)NC(=S)NC2=O)c2ccccc12`, for which the TGI in [1], in [2], in [3], in test [4], in test [5] and in test [6] was > 100 µM in each case. In addition, the TGI in test [7], in test [8], in test [9], in test [10] and in test [11] was > 100 µM in each case.
In the case of `Cc1ccc(C(=O)N/N=C(\N=Nc2ccc(C(=O)O)cc2)c2ccc(N(CCC#N)CCC#N)cc2C)cc1`, the TGI in test [1], in [2], in [3], in test [4], in test [5] and in test [6] was > 100 µM throughout. In addition, the TGI in [7], in test [8], in test [9], in test [10] and in test [11] was > 100 µM throughout.
For `O=C1CC(NCc2ccccc2)c2c(Cl)sc(Cl)c21` (configuration not stated), the TGI is 69.8 µM in [1]; > 66.5 µM in test [2]; 33.1 µM in test [3]; 6.82 µM in [4]; 51.5 µM in test [5]; 76.7 µM in [6]. In addition, the TGI in test [7] is > 100 µM; in [8] it was 58 µM; in [9] it was 80.6 µM; in test [10] it was 43.4 µM; in [11], 75.7 µM.
For `O=C(CC(Cl)=C(Cl)Cl)c1ccccc1`, the TGI in [1] was > 100 µM; in test [2], > 100 µM; in [3], 45.2 µM; in test [4], 41.9 µM; in test [5], > 100 µM; in test [6] it was > 100 µM. Also, the TGI in test [7], in [9], in test [10] and in [11] was > 100 µM throughout.
In the case of `O=C1CC(=O)NC(=NNS(=O)(=O)c2ccc(Cl)cc2)N1`, the TGI in test [1], in [2], in test [3], in [4], in [5] and in test [6] was > 100 µM each time. Besides, the TGI in test [7], in test [8], in test [9], in [10] and in [11] was > 100 µM each time.
For `Cc1[nH]c(=O)nc(NNCc2ccc(Cl)cc2)c1C(=O)Nc1ccc(Cl)cc1`, the TGI in test [1], in [2], in test [3], in test [4], in test [5] and in test [6] was > 100 µM in each case. In addition, the TGI in test [7], in test [8], in test [9], in test [10] and in test [11] was > 100 µM in each case.
Turning to `COc1cccc(C2c3cc4c(cc3OC(Nc3ccccc3)C2C)OCO4)c1OC` (configuration not stated), the TGI in test [1] was > 100 µM; in [2] it was > 100 µM; in [3], > 100 µM; in test [4], 17.8 µM; in test [5], > 100 µM; in test [6], > 100 µM. Further, the TGI in test [7], in test [8], in test [9], in test [10] and in [11] was > 100 µM each time.
As for `CSc1nc2c(c(=O)[nH]1)N=C(c1ccccc1)CC(c1ccccc1)N2` (configuration not stated), the TGI in test [1] is > 100 µM; in test [2], > 100 µM; in [3], 97.5 µM; in test [4] it was 71 µM; in test [5], 76.7 µM; in [6], > 100 µM. The TGI was 88.4 µM in [7]; 56.6 µM in [8]; 44.6 µM in test [9]; > 100 µM in [10]; > 100 µM in test [11].
In the case of `CC(C)N(C(C)C)S(=O)(=O)C[C@]12CC[C@H](CC13OCC(CS(=O)(=O)c1ccccc1)O3)C2(C)C` (some centres not stated), the TGI in [1], in test [2], in [3], in test [4], in test [5] and in test [6] was > 100 µM each time. For the same compound, the TGI in test [7], in test [8], in [9], in test [10] and in test [11] was > 100 µM in each case.
